Patent publication US9682995B2, “Amino-substituted isothiazoles” (BAYER PHARMA AKTIENGESELLSCHAFT, priority 2013, dated 2017)

Columns and labels:
[1] = test system: spindle assembly checkpoint; test: SAC-Formation - Nocodazole-Induced Assay; type: cell-based; conditions: Homo sapiens; HeLa cells, nocodazole 0.1 μg/ml, 24 h, phosphorylated histone H3 on serine 10
Text: The spindle assembly checkpoint assures the proper segregation of chromosomes during mitosis. Upon entry into mitosis, chromosomes begin to condensate which is accompanied by the phosphorylation of histone H3 on serine 10. Dephosphorylation of histone H3 on serine 10 begins in anaphase and ends at early telophase. Accordingly, phosphorylation of histone H3 on serine 10 can be utilized as a marker of cells in mitosis. Nocodazole is a microtubule destabilizing substance. Paclitaxel is a microtubule stabilizing compound. Thus, nocodazole as well as paclitaxel interfere with microtubule dynamics and mobilize the spindle assembly checkpoint. […] The mitotic breakthrough can be detected by the decrease of cells with phosphorylation of histone H3 on serine 10. This decline is used as a marker to determine the capability of compounds of the present invention to induce a mitotic breakthrough. The typical morphological alteration of nuclei with a prematurely completed mitosis after SAC-inhibition can be monitored via image analysis routines supporting those findings.
The nocodazole and paclitaxel variations were used to focus on compounds that are capable of inhibiting a SAC induced by both microtubule destabilization as well as microtubule stabilization. When SAC inducing agents and compounds are given simultaneously, inhibitors that effectively block the SAC during formation or abrogation are identified. When cells are incubated with a SAC inducing agent and the SAC interfering compound is given after a defined time, inhibitors are identified that effectively block SAC abrogation.
Cultivated cells of the human cervical tumor cell line HeLa (ATCC CCL-2) were plated at a density of 1000 cells/well in a 1536-well microtiter plate in 2 μl PAA Ham's F12 Medium supplemented with 1% (v/v) glutamine, 1% (v/v) penicillin, 1% (v/v) streptomycin and 10% (v/v) fetal calf serum. After incubation overnight at 37° C., 10 μl/well nocodazole at a final concentration of 0.1 μg/ml were added to cells. Test compounds solubilized in dimethyl sulfoxide (DMSO) were added at various concentrations (0 μM, as well as in the range of 0.005 μM-20 μM; the final concentration of the solvent DMSO was 0.5% (v/v)). Cells were incubated for 24 h at 37° C. in the presence of test compounds in combination with nocodazole. Thereafter, cells were fixed in 4% (v/v) paraformaldehyde in phosphate buffered saline (PBS) at 4° C. overnight then permeabilized in 0.1% (v/v) Triton X™ 100 in PBS at room temperature for 20 min and blocked in 0.5% (v/v) bovine serum albumin (BSA) in PBS at room temperature for 15 min. After washing with PBS, 5 μl/well antibody solution (anti-phospho-histone H3 clone 3H10, FITC; Millipore, Cat #16-222; 1:1000 dilution) was added to cells, which were incubated for 2 h at room temperature. Afterwards, cells were washed with PBS and 5 μl/well solution of HOECHST 33342 dye (5 μg/ml) was added to cells and cells were incubated 15 min at room temperature in the dark. Cells were washed twice with PBS then covered with PBS and stored at 4° C. until analysis. Images were acquired with a PERKIN ELMER OPERA™ High-Content Analysis reader. Images were analyzed with image analysis software MetaXpress™ from Molecular devices utilizing the Mitotic Index application module. In this assay both labels HOECHST 33342 and phosphorylated Histone H3 on serine 10 were measured. HOECHST 33342 labels the DNA and is used to count the cell number. The staining of phosphorylated Histone H3 on serine 10 determines the number of mitotic cells. […] Otherwise cells were arrested at G2/M phase of the cell cycle progression. The raw assay data were further analyzed by four-parametric hill equation using Genedata's Assay Analyzer and Condoseo software.

[2] = test system: HeLa; test: Proliferation assay (crystal violet), HeLa; type: cell-based; conditions: Homo sapiens, 96 h, 4 days, read-out: Inhibition of proliferation IC50 HeLa
Experimental: Cultivated tumor cells (cells were ordered from ATCC, except HeLa-MaTu and HeLa-MaTu-ADR, which were ordered from EPO-GmbH, Berlin) were plated at a density of 1000 to 5000 cells/well, depending on the growth rate of the respective cell line, in a 96-well multititer plate in 200 μL of their respective growth medium supplemented 10% fetal calf serum. After 24 hours, the cells of one plate (zero-point plate) were stained with crystal violet (see below), while the medium of the other plates was replaced by fresh culture medium (200 μl), to which the test substances were added in various concentrations (0 μM, as well as in the range of 0.001-10 μM; the final concentration of the solvent dimethyl sulfoxide was 0.5%). The cells were incubated for 4 days in the presence of test substances. Cell proliferation was determined by staining the cells with crystal violet: the cells were fixed by adding 20 μl/measuring point of an 11% glutaric aldehyde solution for 15 minutes at room temperature. After three washing cycles of the fixed cells with water, the plates were dried at room temperature. The cells were stained by adding 100 μl/measuring point of a 0.1% crystal violet solution (pH 3.0). After three washing cycles of the stained cells with water, the plates were dried at room temperature. The dye was dissolved by adding 100 μl/measuring point of a 10% acetic acid solution. Absorption was determined by photometry at a wavelength of 595 nm. The change of cell number, in percent, was calculated by normalization of the measured values to the absorption values of the zero-point plate (=0%) and the absorption of the untreated (0 μm) cells (=100%). The IC50 values were determined by means of a 4 parameter fit.

SMILES | IC50 [1] | IC50 [2]
CCc1ccccc1NC(=O)c1c(C)nsc1Nc1cnccn1 [Example 1, N-(2-Ethylphenyl)-3-methyl-5-(pyrazin-2-ylamino)-1,2-thiazole-4-carboxamide] | 1.8 µM | 8.8 µM
CCc1ccccc1NC(=O)c1c(C)nsc1Nc1ccc(C#N)cn1 [Example 7, 5-[(5-Cyanopyridin-2-yl)amino]-N-(2-ethylphenyl)-3-methyl-1,2-thiazole-4-carboxamide] | 0.83 µM | 3 µM
CCc1ccccc1NC(=O)c1c(C)nsc1Nc1ncccc1C#N [Example 8, 5-[(3-Cyanopyridin-2-yl)amino]-N-(2-ethylphenyl)-3-methyl-1,2-thiazole-4-carboxamide] | 4.1 µM | > 10 µM
CCc1ccccc1NC(=O)c1c(C)nsc1Nc1cc(-n2ccnc2)ncn1 [Example 9, N-(2-Ethylphenyl)-5-{[6-(1H-imidazol-1-yl)pyrimidin-4-yl]amino}-3-methyl-1,2-thiazole-4-carboxamide] | 1.3 µM | 2.4 µM
CCc1ccccc1NC(=O)c1c(C)nsc1Nc1ncnc2ccccc12 [Example 10, N-(2-Ethylphenyl)-3-methyl-5-(quinazolin-4-ylamino)-1,2-thiazole-4-carboxamide] | 6.5 µM | 7.2 µM
CCc1ccccc1NC(=O)c1c(C)nsc1Nc1nc2ccccc2o1 [Example 11, 5-(1,3-Benzoxazol-2-ylamino)-N-(2-ethylphenyl)-3-methyl-1,2-thiazole-4-carboxamide] | 1.8 µM | 3.7 µM
CCc1ccccc1NC(=O)c1c(C)nsc1Nc1ncnc2sccc12 [Example 12, N-(2-Ethylphenyl)-3-methyl-5-(thieno[2,3-d]pyrimidin-4-ylamino)-1,2-thiazole-4-carboxamide] | 2 µM | 9.5 µM
CCc1ccccc1NC(=O)c1c(C)nsc1Nc1ncnc2ccsc12 [Example 13, N-(2-Ethylphenyl)-3-methyl-5-(thieno[3,2-d]pyrimidin-4-ylamino)-1,2-thiazole-4-carboxamide] | 0.59 µM | > 10 µM
CCc1ccccc1NC(=O)c1c(C)nsc1Nc1nc2ccccc2s1 [Example 14, 5-(1,3-Benzothiazol-2-ylamino)-N-(2-ethylphenyl)-3-methyl-1,2-thiazole-4-carboxamide] | 0.35 µM | 1 µM
CCc1ccccc1NC(=O)c1c(C)nsc1Nc1cc(NC)ncn1 [Example 15, N-(2-Ethylphenyl)-3-methyl-5-{[6-(methylamino)pyrimidin-4-yl]amino}-1,2-thiazole-4-carboxamide] | 16 µM | > 10 µM
CCc1ccccc1NC(=O)c1c(C)nsc1Nc1nccc(OC)n1 [Example 16, N-(2-Ethylphenyl)-5-[(4-methoxypyrimidin-2-yl)amino]-3-methyl-1,2-thiazole-4-carboxamide] | 9.8 µM | > 10 µM
CCc1ccnc(Nc2snc(C)c2C(=O)Nc2ccccc2CC)n1 [Example 17, N-(2-Ethylphenyl)-5-[(4-ethylpyrimidin-2-yl)amino]-3-methyl-1,2-thiazole-4-carboxamide] | 6 µM | > 10 µM
CCc1ccccc1NC(=O)c1c(C)nsc1Nc1cc(C(F)(F)F)ccn1 [Example 18, N-(2-Ethylphenyl)-3-methyl-5-{[4-(trifluoromethyl)pyridin-2-yl]amino}-1,2-thiazole-4-carboxamide] | 0.15 µM | 7.5 µM
CCc1ccccc1NC(=O)c1c(C)nsc1Nc1nc2ccccc2nc1C [Example 21, N-(2-Ethylphenyl)-3-methyl-5-[(3-methylquinoxalin-2-yl)amino]-1,2-thiazole-4-carboxamide] | 0.28 µM | > 10 µM
COc1ccc(NC(=O)c2c(C)nsc2Nc2nccnc2C#N)cn1 [Example 24, 5-[(3-Cyanopyrazin-2-yl)amino]-N-(6-methoxypyridin-3-yl)-3-methyl-1,2-thiazole-4-carboxamide] | 3.8 µM | > 10 µM
